Patent publication US20170190705A1, “Compositions and Methods for Inhibiting BMP” (THE BRIGHAM AND WOMAN'S HOSPITAL, INC., priority 2014, published 2017)

How the values were obtained:
Assay type in all cases: biochemical
PRKG1 = biological target: T1, PRKG1 (Homo sapiens, UniProt Q13976); experiment: Kinome profiling PRKG1; conditions: read-out: Inhibitory activity PRKG1; for inhibition at 0.1 µM: 100 nM
T1 sequence (Q13976 1-671): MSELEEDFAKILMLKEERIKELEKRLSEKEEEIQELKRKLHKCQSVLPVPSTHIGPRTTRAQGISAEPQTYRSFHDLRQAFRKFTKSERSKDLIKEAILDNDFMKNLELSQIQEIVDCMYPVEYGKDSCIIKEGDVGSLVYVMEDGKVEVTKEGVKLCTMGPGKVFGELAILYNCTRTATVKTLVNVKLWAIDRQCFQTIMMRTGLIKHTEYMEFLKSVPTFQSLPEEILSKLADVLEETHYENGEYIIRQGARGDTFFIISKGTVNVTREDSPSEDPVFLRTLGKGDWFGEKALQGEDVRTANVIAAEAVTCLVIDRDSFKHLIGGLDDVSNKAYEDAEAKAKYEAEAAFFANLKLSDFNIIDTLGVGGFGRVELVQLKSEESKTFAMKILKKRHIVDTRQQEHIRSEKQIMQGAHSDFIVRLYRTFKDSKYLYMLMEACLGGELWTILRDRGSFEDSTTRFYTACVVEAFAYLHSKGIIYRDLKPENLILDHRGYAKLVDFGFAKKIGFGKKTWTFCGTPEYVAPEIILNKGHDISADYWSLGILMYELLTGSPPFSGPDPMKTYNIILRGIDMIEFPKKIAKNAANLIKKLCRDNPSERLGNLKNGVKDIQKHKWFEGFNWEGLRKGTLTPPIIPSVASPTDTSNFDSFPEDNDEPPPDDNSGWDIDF
Method: (§1) . The kinome-wide selectivity was determined following the methods previously reported by Mohedas et al., ACS Chem Biol 2013, 8, 1291-1302 and Sanvitale et al., PLoS One 2013, 8, e62721.

GSK3α = GSK3α (Homo sapiens, UniProt P49840); experiment: Kinome profiling GSK3α; conditions: read-out: Inhibitory activity GSK3α; for inhibition at 0.1 µM: 100 nM
Method: as §1

CK1-γ2 = CK1-γ2 (Homo sapiens, UniProt P78368); experiment: Kinome profiling CK1-γ2; conditions: read-out: Inhibitory activity CK1-γ2; for inhibition at 0.1 µM: 100 nM
Method: as §1

TNK1 = biological target: T2, TNK1 (Homo sapiens, UniProt Q13470); experiment: Kinome profiling TNK1; conditions: read-out: Inhibitory activity TNK1; for inhibition at 0.1 µM: 100 nM
T2 sequence (Q13470 1-666): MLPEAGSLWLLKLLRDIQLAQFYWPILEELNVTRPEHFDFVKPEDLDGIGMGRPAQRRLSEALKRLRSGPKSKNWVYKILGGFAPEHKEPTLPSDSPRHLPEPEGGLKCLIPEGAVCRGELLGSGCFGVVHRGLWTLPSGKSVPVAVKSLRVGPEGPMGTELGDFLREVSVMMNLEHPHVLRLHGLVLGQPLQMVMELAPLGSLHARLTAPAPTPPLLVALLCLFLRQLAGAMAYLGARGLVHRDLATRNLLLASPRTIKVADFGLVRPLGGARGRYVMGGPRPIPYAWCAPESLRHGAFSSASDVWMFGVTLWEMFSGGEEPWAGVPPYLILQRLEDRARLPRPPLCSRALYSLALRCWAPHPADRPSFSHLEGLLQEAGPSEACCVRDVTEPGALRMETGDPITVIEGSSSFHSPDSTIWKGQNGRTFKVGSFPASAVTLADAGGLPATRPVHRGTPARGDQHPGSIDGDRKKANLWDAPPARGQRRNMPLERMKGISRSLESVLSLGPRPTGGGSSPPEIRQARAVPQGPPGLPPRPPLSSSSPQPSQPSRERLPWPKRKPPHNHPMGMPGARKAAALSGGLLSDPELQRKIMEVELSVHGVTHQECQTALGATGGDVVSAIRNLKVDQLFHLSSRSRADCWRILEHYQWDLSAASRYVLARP
Method: as §1

CAMK1δ = CAMK1δ (Homo sapiens, UniProt Q8IU85); experiment: Kinome profiling CAMK1δ; conditions: read-out: Inhibitory activity CAMK1δ; for inhibition at 0.1 µM: 100 nM
Method: as §1

FGFR2 = FGFR2 (Homo sapiens, UniProt P21802); experiment: Kinome profiling FGFR2; conditions: read-out: Inhibitory activity FGFR2; for inhibition at 0.1 µM: 100 nM
Method: as §1

TSSK2 = biological target: T3, TSSK2 (Homo sapiens, UniProt Q96PF2); experiment: Kinome profiling TSSK2; conditions: read-out: Inhibitory activity TSSK2; for inhibition at 0.1 µM: 100 nM
T3 sequence (Q96PF2 1-358): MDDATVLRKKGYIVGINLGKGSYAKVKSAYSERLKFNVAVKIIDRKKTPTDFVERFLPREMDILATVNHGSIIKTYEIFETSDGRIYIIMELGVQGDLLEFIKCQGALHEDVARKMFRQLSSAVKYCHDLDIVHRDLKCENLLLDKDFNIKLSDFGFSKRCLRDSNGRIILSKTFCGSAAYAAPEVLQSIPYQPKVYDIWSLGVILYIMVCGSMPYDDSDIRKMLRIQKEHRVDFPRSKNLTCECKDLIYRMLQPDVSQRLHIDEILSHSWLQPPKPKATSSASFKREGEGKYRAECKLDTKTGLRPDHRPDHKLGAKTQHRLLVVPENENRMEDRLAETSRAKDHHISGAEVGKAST
Method: as §1

MAPKAPK2 = MAPKAPK2 (Homo sapiens, UniProt P49137); experiment: Kinome profiling MAPKAPK2; conditions: read-out: Inhibitory activity MAPKAPK2; for inhibition at 0.1 µM: 100 nM
Method: as §1

CK1-γ3 = CK1-γ3 (Homo sapiens, UniProt Q9Y6M4); experiment: Kinome profiling CK1-γ3; conditions: read-out: Inhibitory activity CK1-γ3; for inhibition at 0.1 µM: 100 nM
Method: as §1

Chain of CK1-γ2 (P78368 whole entry): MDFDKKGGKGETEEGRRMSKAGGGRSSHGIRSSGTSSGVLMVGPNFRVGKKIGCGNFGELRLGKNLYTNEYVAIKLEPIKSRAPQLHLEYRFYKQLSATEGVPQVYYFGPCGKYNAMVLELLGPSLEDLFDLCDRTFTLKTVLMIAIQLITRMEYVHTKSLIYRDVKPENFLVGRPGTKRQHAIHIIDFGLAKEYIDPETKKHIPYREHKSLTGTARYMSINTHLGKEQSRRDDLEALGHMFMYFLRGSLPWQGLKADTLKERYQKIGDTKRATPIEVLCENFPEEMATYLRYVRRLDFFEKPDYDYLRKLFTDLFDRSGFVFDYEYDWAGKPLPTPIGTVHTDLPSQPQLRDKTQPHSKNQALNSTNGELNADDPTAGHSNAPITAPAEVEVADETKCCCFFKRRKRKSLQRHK
Chain of CK1-γ3 (Q9Y6M4 whole entry): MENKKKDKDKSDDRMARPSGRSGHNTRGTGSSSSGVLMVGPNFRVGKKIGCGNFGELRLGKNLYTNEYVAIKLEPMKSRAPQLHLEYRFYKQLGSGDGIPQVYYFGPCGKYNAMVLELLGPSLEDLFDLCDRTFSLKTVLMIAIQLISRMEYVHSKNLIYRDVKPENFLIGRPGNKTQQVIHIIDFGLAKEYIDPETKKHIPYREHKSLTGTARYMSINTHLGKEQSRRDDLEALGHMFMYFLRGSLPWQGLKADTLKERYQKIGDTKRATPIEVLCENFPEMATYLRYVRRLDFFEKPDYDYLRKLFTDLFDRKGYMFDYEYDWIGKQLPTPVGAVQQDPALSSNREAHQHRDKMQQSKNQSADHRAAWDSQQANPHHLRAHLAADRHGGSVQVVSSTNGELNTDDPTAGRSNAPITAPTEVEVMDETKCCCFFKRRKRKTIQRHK
Chain of MAPKAPK2 (P49137 whole entry): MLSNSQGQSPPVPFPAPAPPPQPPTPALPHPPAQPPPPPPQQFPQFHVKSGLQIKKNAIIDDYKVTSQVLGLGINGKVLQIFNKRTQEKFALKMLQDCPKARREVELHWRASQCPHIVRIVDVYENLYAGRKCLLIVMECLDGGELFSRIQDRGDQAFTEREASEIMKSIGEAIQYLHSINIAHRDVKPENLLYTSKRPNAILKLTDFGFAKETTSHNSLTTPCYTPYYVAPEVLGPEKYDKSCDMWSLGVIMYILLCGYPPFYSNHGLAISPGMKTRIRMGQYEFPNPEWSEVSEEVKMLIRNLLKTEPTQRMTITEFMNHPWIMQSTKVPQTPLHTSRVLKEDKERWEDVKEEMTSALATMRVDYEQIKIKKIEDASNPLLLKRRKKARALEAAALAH
Chain of FGFR2 (P21802 22-821): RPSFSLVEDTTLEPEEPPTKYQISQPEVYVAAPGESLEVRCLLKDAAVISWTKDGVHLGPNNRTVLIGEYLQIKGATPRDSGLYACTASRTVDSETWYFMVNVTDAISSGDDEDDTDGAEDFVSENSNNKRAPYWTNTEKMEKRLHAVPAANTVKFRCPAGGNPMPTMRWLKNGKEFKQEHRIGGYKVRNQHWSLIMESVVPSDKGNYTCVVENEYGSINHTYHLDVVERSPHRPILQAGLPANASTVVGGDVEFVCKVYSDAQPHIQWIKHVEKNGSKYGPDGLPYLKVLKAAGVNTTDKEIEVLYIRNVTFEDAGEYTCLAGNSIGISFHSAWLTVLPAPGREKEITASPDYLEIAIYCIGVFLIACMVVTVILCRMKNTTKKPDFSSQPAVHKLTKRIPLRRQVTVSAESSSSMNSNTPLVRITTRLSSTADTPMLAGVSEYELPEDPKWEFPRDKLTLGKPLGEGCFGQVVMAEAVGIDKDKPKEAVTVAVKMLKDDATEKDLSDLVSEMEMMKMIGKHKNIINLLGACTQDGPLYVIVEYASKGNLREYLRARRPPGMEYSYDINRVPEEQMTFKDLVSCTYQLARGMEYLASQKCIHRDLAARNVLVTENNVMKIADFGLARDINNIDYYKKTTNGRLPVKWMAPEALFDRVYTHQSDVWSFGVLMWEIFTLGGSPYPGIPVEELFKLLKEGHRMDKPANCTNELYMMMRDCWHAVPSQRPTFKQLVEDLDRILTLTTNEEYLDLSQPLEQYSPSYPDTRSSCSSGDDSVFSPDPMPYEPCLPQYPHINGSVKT
Chain of GSK3α (P49840 whole entry): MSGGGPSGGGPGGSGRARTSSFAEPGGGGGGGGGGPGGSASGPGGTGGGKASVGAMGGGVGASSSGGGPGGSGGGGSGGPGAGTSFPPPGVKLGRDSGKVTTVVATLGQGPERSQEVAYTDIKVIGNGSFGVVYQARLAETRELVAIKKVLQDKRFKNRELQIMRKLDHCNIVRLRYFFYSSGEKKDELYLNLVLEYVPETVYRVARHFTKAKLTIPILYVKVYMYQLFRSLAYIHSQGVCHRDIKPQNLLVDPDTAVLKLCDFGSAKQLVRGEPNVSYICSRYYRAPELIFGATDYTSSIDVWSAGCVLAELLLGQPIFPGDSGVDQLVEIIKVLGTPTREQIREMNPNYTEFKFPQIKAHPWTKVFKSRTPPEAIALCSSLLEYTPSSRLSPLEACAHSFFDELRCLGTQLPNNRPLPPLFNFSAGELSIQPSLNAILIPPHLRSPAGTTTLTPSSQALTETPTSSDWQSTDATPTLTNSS
Chain of CAMK1δ (Q8IU85 whole entry): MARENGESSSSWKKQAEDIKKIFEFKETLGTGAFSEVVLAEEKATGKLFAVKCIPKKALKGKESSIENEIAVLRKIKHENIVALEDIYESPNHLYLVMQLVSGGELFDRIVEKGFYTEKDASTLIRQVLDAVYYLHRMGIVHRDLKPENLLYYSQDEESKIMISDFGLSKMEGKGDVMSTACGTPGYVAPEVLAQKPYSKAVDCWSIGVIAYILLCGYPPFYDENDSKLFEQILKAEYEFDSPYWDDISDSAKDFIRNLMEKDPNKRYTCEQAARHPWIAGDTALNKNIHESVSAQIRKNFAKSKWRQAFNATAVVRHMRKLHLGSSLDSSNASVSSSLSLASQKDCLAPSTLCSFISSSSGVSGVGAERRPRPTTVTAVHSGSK

SMILES | inhibition at 0.1 µM (PRKG1) [%] | inhibition at 1 µM (PRKG1) [%] | inhibition at 0.1 µM (GSK3α) [%] | inhibition at 1 µM (GSK3α) [%] | inhibition at 0.1 µM (CK1-γ2) [%] | inhibition at 1 µM (CK1-γ2) [%] | inhibition at 0.1 µM (TNK1) [%] | inhibition at 1 µM (TNK1) [%] | inhibition at 0.1 µM (CAMK1δ) [%] | inhibition at 1 µM (CAMK1δ) [%] | inhibition at 0.1 µM (FGFR2) [%] | inhibition at 1 µM (FGFR2) [%] | inhibition at 0.1 µM (TSSK2) [%] | inhibition at 1 µM (TSSK2) [%] | inhibition at 0.1 µM (MAPKAPK2) [%] | inhibition at 1 µM (MAPKAPK2) [%] | inhibition at 0.1 µM (CK1-γ3) [%] | inhibition at 1 µM (CK1-γ3) [%]
COc1cc(-c2cc(-c3ccc(N4CCNCC4)cc3)cnc2C)cc(OC)c1OC [Compound 10, 1-(4-(6-methyl-5-(3,4,5-trimethoxyphenyl)pyridin-3-yl)phenyl)piperazine] | 3 | 2 | 1 | 1 | 1 | 4 | 5 | 2 | 1 | 2 | -1 | 0 | 4 | 4 | 4 | 4 | 1 | 10
COc1cc(-c2cc(-c3ccc(N4CCNCC4)cc3)cnc2N)cc(OC)c1OC [Compound 15, 5-(4-(piperazin-1-yl)phenyl)-3-(3,4,5-trimethoxyphenyl)pyridin-2-amine] | 0 | 4 | 1 | 0 | 3 | 12 | 2 | 16 | 0 | -1 | 2 | 5 | 1 | 1 | 0 | -4 | 7 | 30
